The values below come from patent US20110098284A1, “Methods and compositions for treating pain” (priority 2005, published 2011).

Data set [1] concerns marginal vein of each ear. The conditions noted are these: for edema at injection site / erythema at injection site: 24 hour observation.
For data set [2] the following is noted: cited from earlier work.
The conditions of data set [3]: cited from earlier work; for incidence of injection site pain: diclofenac 75 mg or ketorolac 30 mg IM (Morrow).
For data set [4] the following is noted: CABG study, cited from earlier work.
For data set [5] the following is noted: vs. 0% placebo; P=0.03; cited from earlier work.
The conditions of data set [6]: stored for 12 weeks at 5° C., 25° C./60% RH, 30° C./60% RH, 40° C./75% RH; for original NSAID content on storage: stability indicating HPLC; for visible signs of crystallization, deviation in pH and osmolarity on storage: vials or ampoules sealed under nitrogen.
Data set [7] has as its system marginal vein of each ear. Put plainly: Histopathological evaluation of injection sites (Example 11). It is filed as in vivo, New Zealand White rabbits. The protocol: Injection sites underwent histopathological evaluation.
Thrombosis was recorded for amorphous aggregates of fibrin like material within vascular lumens and variably adherent to vessel walls.

The mark [8] stands for this setting: Treatment A, 5 mg/0.1 mL IV over one minute.
The mark [9] stands for this setting: Treatment B, 15 mg/0.3 mL IV over one minute.
The mark [10] stands for this setting: 1 mg/kg over 10 min as solution of 25 mg/mL (Campbell and Watters).
[11] abbreviates: IV using a diluted infusion (Campbell and Watters).

Each structure is given as a SMILES string. Read-outs that look alike come from different tables or passages of the source.

`CC(C(=O)O)c1cccc(C(=O)c2ccccc2)c1` (racemic) [Ketoprofen, (±)-2-(3-benzoylphenyl)propionic acid]: the “irritation in the ear veins” value was “produced irritation” in data set [1] (Treatment A, 5 mg/0.1 mL IV) and “produced irritation” in data set [1] (Treatment B, 15 mg/0.3 mL IV). The results for the “edema at injection site” value in data set [1] (setting [8]) and in data set [1] (setting [9]) were “slight” and “very slight”, respectively. For the same compound, the “erythema at injection site” value was “well defined” in data set [1] (setting [8]) and “very slight to moderate to severe” in data set [1] (setting [9]).

With `O=C(O)Cc1ccccc1Nc1c(Cl)cccc1Cl` [diclofenac, 2-(2,6-dichlorophenylamino)benzeneacetic acid], the “patients who developed phlebitis” value in data set [2] (1 mg/kg in 100 mL saline every 12 hours x 2 doses, maxillofacial surgery (Tarkkila)) is 10%. For the same compound, in data set [2] (setting [10]), the “incidence of phlebitis, arm” value is on record as 58% and the “incidence of phlebitis, hand” value was 85%. Besides, in data set [2] (setting [11]), the “incidence of thrombosis, arm veins” value is reported as 8% and the “incidence of thrombosis, hand veins” value was 38%. For the same compound, the “patients who developed phlebitis” value in data set [2] (after hip replacement surgery, diclofenac 75 mg IV over 30 minutes then 75 mg/15.5 hours, ketoprofen 100 mg over 30 min then 100 mg/15.5 hours (Kostamovaara)) was 14%. In addition, the “patients who experienced phlebitis” value in data set [2] (after major orthopedic surgery, 0.35 mg/kg IV then 0.90 mcg/min continuous infusion, 6 hours after start (Claeys)) was 5%. Also, the “time of (delayed) venous thrombosis” value in data set [2] (diluted in 100 to 200 mL, infused over 15 to 20 minutes (Gopinath)) is more than 72 h. In data set [3] (IM (Pillans and O'Connor)), the “cases of severe local reactions” value is reported as “six”, the patients who died entry is on record as “Two of the six”, the “patients with extensive tissue necrosis at the IM injection site” value was “Three” and the “patients with necrotizing fasciitis” value is reported as “three”. Besides, the “share of all accepted claims for injection related complications” value in data set [3] (IM administration, New Zealand 1992 to 2003) is 22.6%. The “incidence of injection site pain” value in data set [3] was 31%.

With `O=C(c1ccccc1)c1ccc2n1CCC2C(=O)O` (stereo not drawn) [ketorolac], in data set [3], the “incidence of injection site pain” value is recorded as 3%.

On to `CCC(=O)NS(=O)(=O)c1ccc(-c2c(-c3ccccc3)noc2C)cc1` [parecoxib], for which the deaths in data set [4] (vs. 0 placebo) is given as 4. In data set [4] (vs. 0.7% placebo), the cerebrovascular events was 2.6% and the “incidence of myocardial infarctions” value is given as 1.9%. Further, in data set [5], the sternal wound infections is recorded as 3.2%.

In the case of `CN1C(C(=O)Nc2ccccn2)=C(O)c2ccccc2S1(=O)=O.NCCN` [piroxicam-ethylenediamine], in data set [6], the “original NSAID content on storage” value is listed as 100%±5%; the “visible signs of crystallization, deviation in pH and osmolarity on storage” value was “no visible signs of crystallization or significant deviation in pH and osmolarity”. Also, in data set [7] (rabbit, in vivo), the “incidence of inflammatory cell infiltrates” value was “low”; the “mean intensity (severity) of edema and infiltrates” value is recorded as “none to negligible”.

`CN1C(C(=O)Nc2ccccn2)=C(O)c2sccc2S1(=O)=O.CN1C(C(=O)Nc2ccccn2)=C(O)c2sccc2S1(=O)=O.NCCN` [tenoxicam ethylenediamine]: in data set [6], the “original NSAID content on storage” value is listed as 100%±5%; the “visible signs of crystallization, deviation in pH and osmolarity on storage” value is “no visible signs of crystallization or significant deviation in pH and osmolarity”.

Consider `CN1C(C(=O)Nc2ccccn2)=C(O)c2ccccc2S1(=O)=O` [unsalified piroxicam, 4-hydroxy-2-methyl-N-2-pyridinyl-2H-1,2-benzothiazine-3-carboxamide-1,1-dioxide], for which the “incidence of inflammatory cell infiltrates” value in data set [7] (at the end of needle progression and 1 cm away from the end of progression) is recorded as “intermediate”. Besides, in data set [7] (injection site histopathology), the “mean intensity (severity) of edema and infiltrates” value is reported as “intermediate”.
